Reference: patent EP4806898A1, “HETEROARYL DERIVATIVE COMPOUND AND USE THEREOF” (Voronoi Inc., priority 2023, dated 2025)
Read-outs that look alike come from different tables or passages of the source.

Experiments:
UWB1.289 cells = assay: Cell proliferation inhibitory activity in BRCA1/2-mutant or HRD-positive cells (Cell Titer-Glo); format: cell-based; settings: UWB1.289 cells, 144 hours after compound treatment, Cell Titer-Glo, 1.5 nM to 10 µM, read-out: GI50 UWB1.289 BRCA1 mut
Description: <Experimental Example 2> Evaluation of Cell Proliferation Inhibitory Activity in BRCA1/2-Mutant or HRD-Positive Cells
To evaluate the inhibitory activity of the compound according to the present invention on the proliferation of BRCA1/2 mutants or homologous recombination deficient (HRD) positive cell lines, the following experiments were performed. UWB1.289 cells were cultured in medium (50% MEBM + 50% RPMI1640), and 1,000 cells were seeded in a well plate (black clear bottom 96-well plate, Corning) 16 to 24 hours prior to compound treatment. The compounds were diluted in dimethyl sulfoxide (3-fold serial dilution starting at 10 µM, for a total of 10 concentrations) and injected at 1 µl per well, resulting a final concentration range of […] to 10 µM. Measurements of live cells were performed by a reaction in a 37 °C and CO2 incubator for 144 hours after compound treatment. The cells were incubated for 10 minutes in an incubator using Cell Titer-Glo luminescent cell-viability reagent (Promega), and luminescence intensity thereof was measured using a reader (SynergyNeo2, Biotek). GI50 values were calculated using the GraphPad Prism version 8.4.3 (GraphPad software Inc., San Diego) program.

recombinant USP1 protein = biological target: T1, recombinant USP1 protein (Homo sapiens, UniProt O94782, DEL125-138/DEL229-408/DEL608-737); assay: Binding affinity to recombinant USP1 protein by differential scanning fluorimetry; settings: compound 100 µM, 0.03 mg/mL USP1 (Δ1-66, Δ125-138, Δ229-408, Δ608-737), Tm with compound minus Tm with DMSO; for ΔTm at 100 µM: read-out: ΔTm (°C)
T1 sequence (O94782 with tags, fused parts or gaps DEL125-138/DEL229-408/DEL608-737): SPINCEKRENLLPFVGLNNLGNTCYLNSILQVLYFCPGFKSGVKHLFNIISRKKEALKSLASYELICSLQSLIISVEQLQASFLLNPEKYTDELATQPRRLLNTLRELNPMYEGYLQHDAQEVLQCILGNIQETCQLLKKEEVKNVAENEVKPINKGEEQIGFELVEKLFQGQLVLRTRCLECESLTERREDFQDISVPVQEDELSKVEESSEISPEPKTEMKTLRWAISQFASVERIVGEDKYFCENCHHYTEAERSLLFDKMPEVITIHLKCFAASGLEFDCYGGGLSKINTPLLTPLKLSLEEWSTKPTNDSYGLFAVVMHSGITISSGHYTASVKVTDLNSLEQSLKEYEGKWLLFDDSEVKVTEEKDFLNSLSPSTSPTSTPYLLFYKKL
How it was run: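 Thermal shift readout: ΔTm is the compound-well melting temperature less the DMSO-well value, measured by real-time PCR. Compounds tested at 100 µM final against 0.03 mg/mL truncated USP1 (Δ1-66, Δ125-138, Δ229-408, Δ608-737) in pH 8.0 Tris buffer containing 150 mM NaCl, 2% glycerol, 1 mM DTT.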

ΔTm at 100 µM (recombinant USP1 protein) | ΔTm (°C) (recombinant USP1 protein) | Compound | GI50 (UWB1.289 cells; UWB1289) | GI50 (UWB1.289 cells)
> 5 °C |  | COc1ncnc(C2CC2)c1-c1ncc2cc(C(=O)NC3CCN(C)CC3(F)F)n(Cc3ccc(-c4nc(C(F)(F)F)cn4C)cc3)c2n1 (centres unmarked) [Example 185, 2-(4-cyclopropyl-6-methoxypyrimidin-5-yl)-N-(3,3-difluoro-1-methylpiperidin-4-yl)-7-(4-(1-methyl-4-(trifluoromethyl)-1H-imidazol-2-yl)benzyl)-7H-pyrrolo[2,3-d]pyrimidine-6-carboxamide] | < 100 nM | 
> 5 °C |  | COc1ncnc(C2CC2)c1-c1ncc2cc(C(=O)NC[C@@H](C)O)n(Cc3ccc(-c4nc(C(F)(F)F)cn4C)cc3)c2n1 [Example 163, (R)-2-(4-cyclopropyl-6-methoxypyrimidin-5-yl)-N-(2-hydroxypropyl) -7-(4-(1-methyl-4-(trifluoromethyl)-1H-imidazol-2-yl)benzyl)-7H-pyrrolo[2,3-d]pyrimidine-6-carboxamide] | < 100 nM | 
> 5 °C |  | COc1ncnc(C2CC2)c1-c1ncc2cc(C(=O)NC3CCN(CC4(F)CC4)CC3)n(Cc3ccc(-c4nc(C(F)(F)F)cn4C(C)C)cc3)c2n1 [Example 133, 2-(4-cyclopropyl-6-methoxypyrimidin-5-yl)-N-(1-((1-fluorocyclopropyl)methyl)piperidin-4-yl)-7-(4-(1-isopropyl-4-(trifluoromethyl)-1H-imidazol-2-yl)benzyl)-7H-pyrrolo[2,3-d]pyrimidine-6-carboxamide] | < 100 nM | 
> 5 °C |  | CNC(=O)c1cc2cnc(-c3c(OC)ncnc3C3CC3)nc2n1Cc1ccc(-c2nc(C(F)(F)F)cn2C(C)C)c(F)c1 [Example 146, 2-(4-cyclopropyl-6-methoxypyrimidin-5-yl)-7-(3-fluoro-4-(1-isopropyl-4-(trifluoromethyl)-1H-imidazol-2-yl)benzyl)-N-methyl-7H-pyrrolo[2,3-d]pyrimidine-6-carboxamide] | < 100 nM | 
> 5 °C |  | COc1ncnc(C2CC2)c1-c1ncc2cc(C(=O)N3CCCC(O)C3)n(Cc3ccc(-c4nc(C(F)(F)F)cn4C(C)C)cc3)c2n1 (centres unmarked) [Example 67, (2-(4-cyclopropyl-6-methoxypyrimid in-5-yl)-7-(4-(1-isopropyl-4-(trifluoromethyl)-1H-imidazol-2-yl)benzyl)-7H-pyrrolo[2,3-d]pyrimidin-6-yl) (3-hydroxypiperid in-1-yl)methanone] | < 100 nM | 
> 5 °C |  | CNC(=O)c1cc2cnc(-c3cccnc3OC)nc2n1Cc1ccc(-c2nc(C(F)(F)F)cn2C(C)C)cc1 [Example 147, 7-(4-(1-isopropyl-4-(trifluoromethyl)-1H-imidazol-2-yl)benzyl)-2-(2-methoxypyridin-3-yl)-N-methyl-7H-pyrrolo[2,3-d]pyrimidine-6-carboxamide] | < 100 nM | 
> 5 °C |  | COc1ncnc(C2CC2)c1-c1ncc2cc(C(=O)NCC(C)(C)O)n(Cc3ccc(-c4nc(C(F)(F)F)cn4C(C)C)cc3)c2n1 [Example 61, 2-(4-cyclopropyl-6-methoxypyrimidin-5-yl)-N-(2-hydroxy-2-methylpropyl)-7-(4-(1-isopropyl-4-(trifluoromethyl)-1H-imidazol-2-yl)benzyl)-7H-pyrrolo[2,3-d]pyrimidine-6-carboxamide] | < 100 nM | 
> 5 °C |  | COc1ncnc(C2CC2)c1-c1ncc2cc(C(=O)N[C@@H]3CCC[C@H]3N(C)C)n(Cc3ccc(-c4nc(C(F)(F)F)cn4C)cc3)c2n1 [Example 168, 2-(4-cyclopropyl-6-methoxypyrimidin-5-yl)-N-((1R,2R)-2-(dimethylamino)cyclopentyl)-7-(4-(1-methyl-4-(trifluoromethyl)-1H-imidazol-2-yl)benzyl)-7H-pyrrolo[2,3-d]pyrimidine-6-carboxamide] | < 100 nM | 
> 5 °C |  | COc1ncnc(C2CC2)c1-c1ncc2cc(C(=O)NCC3CCN(C)CC3)n(Cc3ccc(-c4nc(C(F)(F)F)cn4C(C)C)cc3)c2n1 [Example 87, 2-(4-cyclopropyl-6-methoxypyrimidin-5-yl)-7-(4-(1-isopropyl-4-(trifluoromethyl)-1H-imidazol-2-yl)benzyl)-N-((1-methylpiperidin-4-yl)methyl)-7H-pyrrolo[2,3-d]pyrimidine-6-carboxamide] | 100 to 500 nM | 

Second part, the compound before the results:

Compound | ΔTm at 100 µM (recombinant USP1 protein) | ΔTm (°C) (recombinant USP1 protein) | GI50 (UWB1.289 cells; UWB1289) | GI50 (UWB1.289 cells)
COc1ncnc(C2CC2)c1-c1ncc2cc(C(=O)NC3CNC3)n(Cc3ccc(-c4nc(C(F)(F)F)cn4C(C)C)cc3)c2n1 [Example 36, N-(azetidin-3-yl)-2-(4-cyclopropyl-6-methoxypyrimidin-5-yl)-7-(4-(1-isopropyl-4-(trifluoromethyl)-1H-imidazol-2-yl)benzyl)-7H-pyrrolo[2,3-d]pyrimidine-6-carboxamide] | > 5 °C |  | 100 to 500 nM | 
COc1ncnc(C2CC2)c1-c1ncc2cc(C(=O)N3CCCC3)n(Cc3ccc(-c4nc(C(F)(F)F)cn4C(C)C)cc3)c2n1 [Example 51, (2-(4-cyclopropyl-6-methoxypyrimid in-5-yl)-7-(4-(1-isopropyl-4-(trifluoromethyl)-1H-imidazol-2-yl)benzyl)-7H-pyrrolo[2,3-d]pyrimidin-6-yl)(pyrrolidin-1-yl)methanone] | > 5 °C |  | < 100 nM | 
COc1ncnc(C2CC2)c1-c1ncc2cc(C(=O)N3CCN(C4COC4)CC3)n(Cc3ccc(-c4nc(C(F)(F)F)cn4C(C)C)cc3)c2n1 [Example 25, (2-(4-cyclopropyl-6-methoxypyrimid in-5-yl)-7-(4-(1-isopropyl-4-(trifluoromethyl)-1H-imidazol-2-yl)benzyl)-7H-pyrrolo[2,3-d]pyrimidin-6-yl) (4-(oxetan-3-yl)piperazin-1-yl)methanone] | > 5 °C |  | < 100 nM | 
COc1ncnc(C2CC2)c1-c1ncc2cc(C(=O)N3CCC(N4CCOCC4)CC3)n(Cc3ccc(-c4nc(C(F)(F)F)cn4C(C)C)cc3)c2n1 [Example 14, (2-(4-cyclopropyl-6-methoxypyrimid in-5-yl)-7-(4-(1-isopropyl-4-(trifluoromethyl)-1H-imidazol-2-yl)benzyl)-7H-pyrrolo[2,3-d]pyrimidin-6-yl) (4-morpholinopipe ridin-1-yl)methanone] | > 5 °C |  | < 100 nM | 
2-(4-cyclopropyl-6-ethoxypyrimidi n-5-yl)-7-(4-(1-isopropyl-4-(trifluorometh yl)-1H-imidazol-2-yl)benzyl)-N-methyl-7H-pyrrolo[2,3-d]pyrimidine-6-carboxamide [Example 63] |  | A (ΔTm (°C) > 5 °C) |  | < 100 nM
COc1ncnc(C2CC2)c1-c1ncc2cc(C(=O)NC3CC3(F)F)n(Cc3ccc(-c4nc(C(F)(F)F)cn4C(C)C)cc3)c2n1 (centres unmarked) [Example 10, 2-(4-cyclopropyl-6-methoxypyrimidin-5-yl)-N-(2,2-difluorocyclopropyl)-7-(4-(1-isopropyl-4-(trifluoromethyl)-1H-imidazol-2-yl)benzyl)-7H-pyrrolo[2,3-d]pyrimidine-6-carboxamide] | > 5 °C |  | < 100 nM | 
COc1ncnc(C2CC2)c1-c1ncc2cc(C(=O)N3CC[C@@H](N(C)C)C3)n(Cc3ccc(-c4nc(C(F)(F)F)cn4C(C)C)cc3)c2n1 [Example 39, (R)-(2-(4-cyclopropyl-6-methoxypyrimidin-5-yl)-7-(4-(1-isopropyl-4-(trifluoromethyl)-1H-imidazol-2-yl)benzyl)-7H-pyrrolo[2,3-d]pyrimidin-6-yl) (3-(dimethylamino)pyrrolidin-1-yl)methanone] | > 5 °C |  | 100 to 500 nM | 
